# Read-outs that look alike come from different tables or passages of the source.
# How the values were obtained:
# HO-2 null mice [1] = test: Breathing (apnea, hypoapnea) monitored by whole-body plethysmography in unsedated HO-2 null mice; type: in vivo; details: for ED50: Mus musculus
# Method: Experiments were approved by the Institutional Animal Care and Use Committee of the University of Chicago and were performed on age-matched C57/BL6 wild type and HO-2^−/− mice. At the end of the experiment, mice were euthanized by intra-cardiac injection (0.1 mL) of euthanasia solution (Beuthanasia-D Special, Schering-Plough).
# Breathing was continuously monitored under room air from 10:00 AM to 4:00 PM by whole-body plethysmography (emka Technologies, Falls Church, VA) while ambient temperatures were maintained at 25±1° C. Breathing signals were collected and stored with a data acquisition system(emka Technologies, Falls Church, VA; or PowerLab 8/35, AD Instruments, Australia), and scored off-line with commercial software (RemLogic™, Natus). Apneas were scored when there was a complete pause of respiration for the duration of 3 or more breaths. Hypopneas were scored when there was a 30% reduction in tidal volume or signal amplitude, often with an abrupt return to hyperventilation breaths at the end of the event.
# [2] = biological target: T1, cystathionine-γ-lyase (CSE) (Mus musculus, UniProt Q8VCN5); test: In vitro assay of H2S production in mouse liver homogenates (CSE); type: biochemical
# T1 construct: H2S production in an in vitro assay using mouse liver homogenates; from tissue; host or cells: mouse liver homogenate
# T1 sequence (Q8VCN5 whole entry): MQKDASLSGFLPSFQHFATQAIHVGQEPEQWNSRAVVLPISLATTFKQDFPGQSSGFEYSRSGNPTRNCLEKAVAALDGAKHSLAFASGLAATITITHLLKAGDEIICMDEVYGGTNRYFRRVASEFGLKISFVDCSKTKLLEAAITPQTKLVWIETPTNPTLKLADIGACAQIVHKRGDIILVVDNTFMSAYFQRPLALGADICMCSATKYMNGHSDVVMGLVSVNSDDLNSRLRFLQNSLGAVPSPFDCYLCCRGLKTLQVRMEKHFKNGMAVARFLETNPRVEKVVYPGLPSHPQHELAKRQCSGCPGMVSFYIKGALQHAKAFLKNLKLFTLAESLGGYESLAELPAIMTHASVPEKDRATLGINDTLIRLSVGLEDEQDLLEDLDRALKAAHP
# Method: (§1) FIGS. 10A-10B Effect of CSE inhibitor on H2S production. FIG. 10A depicts a dose-response of L-propargylglycine (L-PAG) on H2S production in an in vitro assay using mouse liver homogenates. FIG. 10B depicts the effect of L-PAG (30 μM) on H2S generation by CSE and CBS in mouse liver homogenates. Data are presented as mean±SEM from 4 independent experiments. **P<0.01; n.s., not significant.
# (§2) The effect of pharmacological CSE blockade on restoration of stable breathing in HO-2 null mice was examined. L-propargylglycine (L-PAG) is an inhibitor of CSE. […] The inhibitory effects of L-PAG were selective to CSE because H2S synthesis by cystathionine-β-synthase was unaffected (FIG. 10 B).
# cystathionine-β-synthase = biological target: T2, cystathionine-β-synthase (Mus musculus, UniProt Q91WT9); test: In vitro assay of H2S production in mouse liver homogenates (CBS); type: biochemical; details: L-PAG 30 μM
# T2 construct: H2S generation by CSE and CBS in mouse liver homogenates; from tissue; host or cells: mouse liver homogenate
# T2 sequence (Q91WT9 1-561): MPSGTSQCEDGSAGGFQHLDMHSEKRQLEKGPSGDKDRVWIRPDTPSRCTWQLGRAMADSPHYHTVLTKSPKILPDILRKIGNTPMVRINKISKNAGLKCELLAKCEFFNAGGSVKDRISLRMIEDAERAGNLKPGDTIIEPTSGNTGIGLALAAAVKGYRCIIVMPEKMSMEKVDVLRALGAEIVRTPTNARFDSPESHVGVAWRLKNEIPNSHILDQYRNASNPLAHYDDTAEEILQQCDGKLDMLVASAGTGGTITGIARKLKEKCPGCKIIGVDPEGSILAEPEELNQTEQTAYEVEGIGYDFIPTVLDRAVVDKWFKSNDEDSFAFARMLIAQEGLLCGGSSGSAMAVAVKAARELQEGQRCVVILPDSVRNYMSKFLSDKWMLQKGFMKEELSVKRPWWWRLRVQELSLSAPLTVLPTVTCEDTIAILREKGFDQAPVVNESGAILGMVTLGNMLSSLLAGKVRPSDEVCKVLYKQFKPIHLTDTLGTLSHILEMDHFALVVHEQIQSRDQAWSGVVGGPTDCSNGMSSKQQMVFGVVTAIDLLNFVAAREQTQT
# Method: as §1, §2
# in vivo = test: in vivo
# Method: Comparisons of L-PAG plasma levels with (a) dose-response parameters for L-PAG pharmacologic activity and (b) the kinetics of reversal of this pharmacologic activity, support the conclusion that a threshold plasma drug level of approximately 12 to 15 μg/ml is necessary to sustain anti-apnea action. This threshold plasma drug level is consistent with both (a) the minimal anti-apnea activity of the 10 mg/kg dose of L-PAG and (b) the kinetics of the reversal of anti-apnea activity with time seen at L-PAG doses of 30 mg/kg or higher.
# carotid body = test: Ex vivo carotid body sensory nerve response to hypoxia; details: 30 mg/kg, HO-2 null mice
# Method: Sensory nerve activity was recorded from ex vivo carotid bodies harvested from anesthetized mice. Briefly, the carotid sinus nerve was treated with collagenase, and several nerve bundles were isolated. Action potentials from one of the nerve bundles were recorded using a suction electrode (˜20-μm-diameter tip). […] Action potentials of similar height, duration, and shape (“single” unit) were selected using Spike histogram software (LabChart 7 Pro) for analysis of the sensory nerve activity. To obtain a stable baseline sensory nerve activity, carotid bodies were first superfused for 1 hour with normoxia-equilibrated medium. Subsequently, baseline sensory nerve activity under normoxia was recorded for 5 min. Sensory nerve responses to hypoxia were monitored for 3 min. The PO2 in the medium was determined by a blood gas analyzer (ABL 5). Hypoxic response was measured as the difference between the sensory nerve activity under baseline and during hypoxia (Δimp/s).
# HO-2 null mice [3] = details: any of the doses tested
# Method: HO-2 null mice were treated with increasing doses of L-PAG via the intraperitoneal route, and breathing was monitored continuously for 6 hours. […] The anti-apneic effects of L-PAG were further analyzed at 30 mg/kg.
smiles,measurement,setting,value
"C#CC[C@H](N)C(=O)O [L-PAG, L-propargylglycine]",anti-apnea activity at 10 mg/kg dose,HO-2 null mice [1]; 10 mg/kg,minimal
same,hypoapnea index,HO-2 null mice [1]; 30 mg/kg intraperitoneal,reduced by L-PAG and this effect persisted even after 24 hours
same,occurrence of both obstructive and central apnea,HO-2 null mice [1]; 30 mg/kg intraperitoneal,markedly reduced
same,time after administration at which anti-apneic effects were seen,HO-2 null mice [1]; 30 mg/kg intraperitoneal,~2 h
same,time after which apnea returned to pre-injection values,HO-2 null mice [1]; 30 mg/kg intraperitoneal,24 h
same,ED50,"HO-2 null mice [1]; ip, intraperitoneal route, breathing monitored 6 hours, HO-2 null mice, read-out: ED50 for reducing number of apneas and restoring stable breathing",30 mg/kg
same,ED50,"HO-2 null mice [1]; systemic administration, HO2-KO mice, FIG. 11, read-out: ED50 for inhibiting SDB (comparative dose-response)",~30 mg/kg
same,reduction of number of apneas and hypoapnea index after oral administration,"HO-2 null mice [1]; oral 30 mg/kg, compared with intraperitoneal",equally effective
same,CSE-derived H2S,[2],inhibited
same,H2S synthesis by cystathionine-β-synthase,cystathionine-β-synthase,unaffected
same,bioavailability,in vivo,100%
same,"plasma clearance profiles, oral versus i.p.",in vivo,essentially identical
same,threshold plasma drug level necessary to sustain anti-apnea action,in vivo; mouse,12 to 15 µg/mL
same,carotid body sensitivity to hypoxia,carotid body,markedly reduced
same,mortality,HO-2 null mice [3],no mortality

# From patent publication US12280038B2, “L-pag derivatives for treatment of sleep disordered breathing (SDB)” (priority 2016, dated 2025)
